Source: PubChem BioAssay (NCI)
Several values for one entry are separate records, joined by “and”; a condition that tells them apart may be missing. Equal entries are not always repeated.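 Tested at 5 concentrations; 48 h exposure; 96-well plates; endpoints linearly interpolated, else capped at highest concentration. GI50 = concentration required for 50% inhibition of growth. TGI marks complete inhibition of growth.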

Assays:
Test in all cases: growth of human tumour cells (NCI), 48 h
HCT-116 colon = tested on: HCT-116 colon
K-562 leukemia = tested on: K-562 leukemia
M14 melanoma = tested on: M14 melanoma
PC-3 prostate = tested on: PC-3 prostate
OVCAR-3 ovarian = tested on: OVCAR-3 ovarian
CAKI-1 renal = tested on: CAKI-1 renal
NCI-H522 lung = tested on: NCI-H522 lung
786-0 renal = tested on: 786-0 renal
NCI-H226 lung = tested on: NCI-H226 lung
HS 578T breast = tested on: HS 578T breast

Row | Structure (SMILES) | GI50 (HCT-116 colon) | TGI (HCT-116 colon) [µM] | GI50 (K-562 leukemia) | TGI (K-562 leukemia) [µM] | GI50 (M14 melanoma) [µM] | TGI (M14 melanoma) [µM] | GI50 (PC-3 prostate) | TGI (PC-3 prostate) [µM] | GI50 (OVCAR-3 ovarian) | TGI (OVCAR-3 ovarian) [µM] | GI50 (CAKI-1 renal) | TGI (CAKI-1 renal) [µM] | GI50 (NCI-H522 lung) [µM] | TGI (NCI-H522 lung) [µM] | GI50 (786-0 renal) | TGI (786-0 renal) [µM] | GI50 (NCI-H226 lung) | TGI (NCI-H226 lung) [µM] | GI50 (HS 578T breast) | TGI (HS 578T breast)
1 | CNC(=O)n1ccc2cc(Oc3ccnc(NC(=O)c4ccc(C5CCN(CCO)CC5)cc4)c3)c(OCCOC)cc21 | 2.63 µM | 11.9 | 0.529 µM | 10.6 | 1.98 | 4.24 | 6.1 µM | 26.2 | 3.67 µM | 11 | 3.08 µM | 11.3 | 3.09 | 11 | 1.94 µM | 4.38 | 12.1 µM | 31.3 | 1.84 µM | 7.37 µM
2 | Cc1ccc(/C=C2\CN(C(=O)OC(C)(C)C)C/C(=C\c3ccc(C)cc3)C2=O)cc1 | 0.058 µM | 13.7 | 0.332 µM | > 100 | 0.0608 | > 100 | 0.452 µM | > 100 | 0.352 µM | – | 0.576 µM | > 100 | 0.159 | > 100 | 0.445 µM | > 100 | – | > 100 | 0.0562 µM | 3.45 µM
3 | C[C@@H](C(=O)Nc1ccc(Cl)cc1)C1CCC(c2ccnc3ccc(F)cc23)CC1 (some centres not stated) | 3.13 µM | 21.6 | 5.1 µM | 67.4 | 7.12 | > 100 | 3.43 µM | > 100 | 11.9 µM | 63.1 | 6.23 µM | > 100 | 10.7 | 70.5 | 4.31 µM | > 100 | 13.7 µM | > 100 | 9.3 µM | 68.5 µM
4 | N#Cc1cnc2cc(OC[C@H](O)CO)c(NC(=O)CC3CSSC3)cc2c1Nc1ccc(OCc2cccc(F)c2)c(Cl)c1 | 0.0977 µM | 0.208 | 0.122 µM | 0.361 | 0.139 | 0.447 | 0.162 µM | 0.451 | 0.514 µM | 1.24 | 10.1 µM | 27.6 | 0.729 | 1.59 | 1.76 µM | 9.6 | 0.335 µM | 1.49 | 0.447 µM | 1.69 µM
5 | COc1c2c(c3c(c1CCC(=O)O)OC(C)(C)C=C3)OC(C)(C)C=C2 | – | > 100 | – | > 100 | – | > 100 | – | > 100 | – | > 100 | – | > 100 | – | > 100 | – | > 100 | – | > 100 | – | > 100 µM
6 | CC(C)NC[C@@H](C(=O)N1CCN(c2ncnc3c2[C@H](C)C[C@H]3O)CC1)c1ccc(Cl)cc1 | > 10 µM and 23.8 µM | > 100 | > 10 µM and 48.1 µM | > 100 | > 61.5 | > 100 | 0.566 µM and 0.887 µM | > 100 | > 10 µM and 12.3 µM | > 100 | > 10 µM and 36.1 µM | > 100 | > 100 | > 100 | 0.334 µM and 0.546 µM | > 100 | 5.16 µM and 13.3 µM | > 100 | 1 µM and 0.657 µM | > 10 µM and 18.4 µM
7 | CC(C)(C)C[C@H]1NC(C(=O)NCC[C@H](O)CO)[C@H](c2cccc(Cl)c2)[C@@]12C(=O)Nc1cc(Cl)c(F)cc12 (some centres not stated) | 3.07 µM | 16.3 | 14.8 µM | 43.6 | 16.6 | 33.7 | 14.9 µM | 34.7 | 14.6 µM | 28.1 | 3.84 µM | 18.1 | 14.3 | 30 | 17 µM | 33.8 | 2.46 µM | 14.1 | 16 µM | 60.4 µM
8 | CCN1C(=O)N(CC)C2C1NN=c1s/c(=C\c3cccnc3)c(=O)n12 (configuration not stated) | 0.478 µM | > 100 | 0.3 µM | > 100 | 0.298 | > 100 | 0.451 µM | > 100 | 0.359 µM | 8.53 | 0.346 µM | > 100 | 0.474 | > 100 | 0.695 µM | > 100 | 1.1 µM | > 100 | 0.44 µM | > 100 µM
9 | COc1ccc(-c2ccc(/C=N/n3c(COc4ccc(Cl)cc4Cl)n[nH]c3=S)o2)c([N+](=O)[O-])c1 | 17.5 µM | 31.3 | 19.3 µM | 47.4 | 16 | 31.6 | 19.4 µM | 47.1 | 16.1 µM | 46.3 | 17.3 µM | 36.9 | 29.7 | > 100 | 29 µM | 54.2 | 2.52 µM | 11.9 | 40.8 µM | > 100 µM
10 | O=C(c1ccc(F)cc1)c1cccc(C(=O)c2ccc(F)cc2)n1 | – | 81.8 | – | > 100 | – | > 100 | – | > 100 | – | > 100 | – | > 100 | – | 71.5 | – | 77.1 | – | > 78 | – | > 94.8 µM
11 | COc1cc(Cl)cc(-c2nn(C(=O)NCCN3CCOCC3)cc2-c2ccncc2)c1 | 4.13 µM | 51.2 | 4.12 µM | > 100 | 5.42 | 39.5 | 4.24 µM | > 100 | 2.41 µM | 7.11 | 2.49 µM | 18.7 | 3.38 | > 100 | 6.88 µM | 37.9 | 7.2 µM | 48.9 | 6.38 µM | 41 µM
12 | COC1(C(=O)N[C@@H](C)c2ccc(-n3cc(F)cn3)nc2)CCC(c2nc(C)cc(Nc3cc(C)[nH]n3)n2)CC1 (some centres not stated) | 2.61 µM | 14 | 3.27 µM | > 100 | 3.03 | 17.7 | 3.66 µM | 32.7 | 3.13 µM | 20.6 | 0.889 µM | 2.23 | 2.26 | 16.7 | 1.33 µM | 8 | 0.222 µM | 11.7 | 0.248 µM | 1.31 µM
13 | O=C1OC(=O)C(c2c[nH]c3ccccc23)=C1c1c[nH]c2ccccc12 | > 25 µM | > 25 | > 25 µM | > 25 | > 25 | > 25 | > 18 µM | > 25 | > 25 µM | > 25 | > 25 µM | > 25 | > 25 | > 25 | > 25 µM | > 25 | > 25 µM | > 25 | > 25 µM | > 25 µM
14 | COc1ccc2nc3cc([N+](=O)[O-])ccc3c(NCCCCCN(C)C)c2c1 | 0.0453 µM | 1.18 | 0.0255 µM | 0.353 | 0.216 | 0.522 | – | 1.75 | 1.41 µM | 12.1 | 0.306 µM | 3.04 | 0.03 | 0.0907 | 0.15 µM | 1.07 | 0.309 µM | 1.68 | 0.376 µM | 4.66 µM
15 | COc1cccc(/C=C/C(=O)c2cccc(Nc3nc(Nc4ccccc4)nc(Nc4ccccc4)n3)c2)c1 | 1.42 µM | 2.93 | 3.96 µM | 45.8 | 19.3 | > 72.2 | 5.21 µM | > 67.2 | 9.16 µM | 33.5 | > 22.4 µM | > 60.8 | 15.1 | > 100 | 18.6 µM | > 65.5 | 24.2 µM | > 67.9 | 15.8 µM | 61.7 µM
16 | C[C@H](Nc1ncnc2nc[nH]c12)c1cc2cccc(Cl)c2c(=O)n1-c1ccccc1 | 18.4 µM | > 100 | 46.9 µM | > 100 | 21.1 | > 100 | 2.39 µM | > 100 | 4.19 µM | > 100 | 13.5 µM | > 100 | 6.93 | > 100 | 1.42 µM | > 86.7 | > 77.4 µM | > 100 | 0.631 µM | 14.5 µM
17 | CCN(CC)CCn1ccc(=O)c2cc3c(=O)ccn(CCN(CC)CC)c3c(C)c21 | – | 9.08 | – | 26.8 | – | 22.5 | – | 15.9 | – | 23.6 | – | 18.3 | – | 20.7 | – | 8.56 | – | 23.8 | – | 17.5 µM
18 | COC(=O)[C@]12CC[C@@H](C)[C@H](C)[C@@H]1C1=CC[C@@H]3[C@@]4(C)C[C@@H](OC(C)=O)[C@H](O)[C@@](C)(COC(C)=O)[C@@H]4[C@H](O)C[C@@]3(C)[C@]1(C)CC2 | 1.95 µM | 4.11 | 2.33 µM | 6.06 | 1.96 | 5.09 | 1.86 µM | 7.05 | 2.74 µM | 7.24 | 2.82 µM | 10.9 | 1.94 | 4.33 | 1.89 µM | 4.84 | 3.19 µM | 8.54 | 2.95 µM | 12.6 µM
19 | C=CCc1c2c(c(OC)c3ccoc13)C(=O)/C(=C/c1ccccc1OC)O2 | 3.29 µM | > 100 | 3.51 µM | > 100 | 8.19 | > 100 | 5.25 µM | > 100 | 3.28 µM | 12.2 | 3.15 µM | 35.2 | 3.16 | 31.7 | 6.28 µM | > 100 | 3.22 µM | 20.5 | 5.29 µM | > 100 µM
20 | CCN(CC)c1ccc(C(=C2C=CC(=[N+](CC)Cc3cccc(S(=O)(=O)O)c3)C=C2)c2ccc(N(CC)Cc3cccc(S(=O)(=O)O)c3)cc2)cc1 | 3.18 µM | 19.7 | 3.85 µM | 97.5 | 4.93 | 39.2 | 6.87 µM | > 66.3 | 5.21 µM | 37.4 | 24 µM | > 100 | 7.88 | > 79.2 | 12.9 µM | 98.9 | 9.07 µM | > 90.2 | 2.86 µM | > 30.5 µM
21 | Cc1ccc2c(ccc3c[n+]4c5ccccc5ccc4n32)c1 | 1.85 µM | 7.51 | 0.584 µM | 14.4 | 1.35 | 4.68 | 0.946 µM | 10.4 | 0.459 µM | 2.63 | 8.25 µM | > 100 | 1.09 | 3.8 | 2.56 µM | 14.8 | 2.43 µM | 10.4 | 0.959 µM | 4.71 µM
22 | Cc1sc(C(=O)Nc2cc(C(=O)NCCCN(C)C)n(C)c2)cc1NC(=O)CCCN1C(=O)c2cccc3cccc(c23)C1=O | > 100 µM | > 100 | > 100 µM | > 100 | > 100 | > 100 | > 100 µM | > 100 | > 100 µM | > 100 | > 100 µM | > 100 | > 100 | > 100 | > 100 µM | > 100 | > 100 µM | > 100 | > 100 µM | > 100 µM
23 | CCN(CC)S(=O)(=O)c1ccc(OC)c(Nc2ncc(-c3ccccc3)o2)c1 | > 17.9 µM | > 25 | > 16.2 µM | > 25 | > 25 | > 25 | > 15.9 µM | > 25 | > 19.5 µM | > 25 | > 25 µM | > 25 | > 16.9 | > 25 | 22.8 µM | > 25 | > 5.28 µM | > 25 | > 14.4 µM | > 25 µM
24 | COc1ccc(C(=O)/C=C/c2ccc(/C=C/c3cc(OC)c(OC)c(OC)c3)cc2)cc1 | 2.62 µM | > 100 | 3.03 µM | > 100 | 9.61 | > 100 | 5.65 µM | > 100 | 3.92 µM | 14.3 | 14.6 µM | > 100 | 3.3 | 30.7 | 10.4 µM | 71.1 | 3.57 µM | 22.8 | 9.11 µM | > 100 µM
